Measurements: ChEMBL document CHEMBL1201862, “PubChem BioAssay data set” (2004)
Activity calls are given as the source filed them. Rule as the data show it: actives have a measured IC50 and inactives only a lower limit.

How the values were obtained:
Type in all cases: functional
[1] = biological target: T1, Sentrin-specific protease 7 (Homo sapiens, UniProt Q9BQF6);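 also: Luminescence-based dose-response confirmation of ultra-high-throughput screening hits, measuring inhibition of SENP7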
T1 sequence (Q9BQF6 whole entry): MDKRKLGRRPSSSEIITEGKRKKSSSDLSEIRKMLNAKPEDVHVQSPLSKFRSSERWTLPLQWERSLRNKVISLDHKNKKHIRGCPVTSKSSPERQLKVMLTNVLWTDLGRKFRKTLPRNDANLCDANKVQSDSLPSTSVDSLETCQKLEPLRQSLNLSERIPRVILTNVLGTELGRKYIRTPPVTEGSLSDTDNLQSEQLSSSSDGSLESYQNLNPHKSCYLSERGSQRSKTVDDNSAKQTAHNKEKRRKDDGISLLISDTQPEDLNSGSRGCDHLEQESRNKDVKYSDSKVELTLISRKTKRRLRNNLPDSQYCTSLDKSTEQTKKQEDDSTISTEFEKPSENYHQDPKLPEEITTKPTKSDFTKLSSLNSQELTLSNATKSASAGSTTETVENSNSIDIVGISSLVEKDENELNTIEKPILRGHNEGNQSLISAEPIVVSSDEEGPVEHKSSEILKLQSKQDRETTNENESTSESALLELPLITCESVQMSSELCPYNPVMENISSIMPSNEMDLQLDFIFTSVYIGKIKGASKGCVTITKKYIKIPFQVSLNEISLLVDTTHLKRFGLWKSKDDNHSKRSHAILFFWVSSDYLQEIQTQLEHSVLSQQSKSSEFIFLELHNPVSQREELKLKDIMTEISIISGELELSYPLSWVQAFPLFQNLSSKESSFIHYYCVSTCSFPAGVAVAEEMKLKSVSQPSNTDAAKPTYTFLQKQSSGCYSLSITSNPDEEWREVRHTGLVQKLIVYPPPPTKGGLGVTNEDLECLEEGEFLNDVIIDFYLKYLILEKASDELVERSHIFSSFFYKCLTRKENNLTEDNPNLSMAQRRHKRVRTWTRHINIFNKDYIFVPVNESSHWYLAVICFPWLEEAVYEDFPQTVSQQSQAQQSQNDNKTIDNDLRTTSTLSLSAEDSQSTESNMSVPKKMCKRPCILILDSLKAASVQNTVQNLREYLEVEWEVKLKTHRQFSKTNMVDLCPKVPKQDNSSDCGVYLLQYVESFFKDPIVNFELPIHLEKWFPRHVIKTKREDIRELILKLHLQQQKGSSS

Caspase-3 = biological target: T2, Caspase-3 (Homo sapiens, UniProt P42574);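 also: Dose-response selectivity test against caspase-3 for candidate inhibitors of sentrin-specific proteases (SENPs)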
T2 sequence (P42574 whole entry): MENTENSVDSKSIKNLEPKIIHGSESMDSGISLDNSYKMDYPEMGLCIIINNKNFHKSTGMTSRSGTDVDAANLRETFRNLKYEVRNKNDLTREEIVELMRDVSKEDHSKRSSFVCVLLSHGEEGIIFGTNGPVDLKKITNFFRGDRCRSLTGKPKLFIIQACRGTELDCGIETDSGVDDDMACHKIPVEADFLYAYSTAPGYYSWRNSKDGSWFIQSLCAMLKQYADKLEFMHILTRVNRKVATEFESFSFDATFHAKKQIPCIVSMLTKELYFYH

[2] = biological target: T3, Sentrin-specific protease 6 (Homo sapiens, UniProt Q9GZR1);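 also: Luminescence-based dose-response confirmatory assay of SENP6 inhibition, following up an ultra-high-throughput screen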
T3 sequence (Q9GZR1 whole entry): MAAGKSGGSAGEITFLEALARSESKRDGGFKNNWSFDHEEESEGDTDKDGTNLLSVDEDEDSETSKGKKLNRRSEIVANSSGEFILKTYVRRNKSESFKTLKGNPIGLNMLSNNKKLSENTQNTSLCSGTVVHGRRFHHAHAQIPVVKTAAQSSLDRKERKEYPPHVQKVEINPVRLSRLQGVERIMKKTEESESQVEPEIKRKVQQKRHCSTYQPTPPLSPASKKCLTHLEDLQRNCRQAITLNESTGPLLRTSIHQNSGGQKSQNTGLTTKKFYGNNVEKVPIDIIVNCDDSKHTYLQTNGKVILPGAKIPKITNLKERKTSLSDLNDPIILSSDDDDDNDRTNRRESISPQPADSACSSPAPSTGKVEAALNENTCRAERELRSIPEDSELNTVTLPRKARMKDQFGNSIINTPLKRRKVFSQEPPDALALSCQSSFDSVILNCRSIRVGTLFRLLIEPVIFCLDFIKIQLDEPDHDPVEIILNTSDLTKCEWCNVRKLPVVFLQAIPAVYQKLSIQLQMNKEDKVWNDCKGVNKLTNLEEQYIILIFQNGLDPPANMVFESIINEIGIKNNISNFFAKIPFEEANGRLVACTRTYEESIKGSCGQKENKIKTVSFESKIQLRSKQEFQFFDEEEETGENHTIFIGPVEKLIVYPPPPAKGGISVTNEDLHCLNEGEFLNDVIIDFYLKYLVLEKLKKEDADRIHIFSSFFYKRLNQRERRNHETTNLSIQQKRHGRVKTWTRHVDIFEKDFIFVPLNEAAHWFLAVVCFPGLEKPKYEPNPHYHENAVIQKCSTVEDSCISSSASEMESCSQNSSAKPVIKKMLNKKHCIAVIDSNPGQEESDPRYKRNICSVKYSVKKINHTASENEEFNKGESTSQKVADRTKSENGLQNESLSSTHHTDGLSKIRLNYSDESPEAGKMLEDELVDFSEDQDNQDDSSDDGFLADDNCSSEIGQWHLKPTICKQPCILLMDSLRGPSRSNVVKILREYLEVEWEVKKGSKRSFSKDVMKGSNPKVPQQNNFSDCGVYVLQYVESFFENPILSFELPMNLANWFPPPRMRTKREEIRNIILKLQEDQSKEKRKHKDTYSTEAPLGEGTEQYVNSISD

Structure (SMILES)	IC50 [1]	IC50 (Caspase-3)	IC50 [2]
Oc1ccc(N=Nc2c(O)ccc3ccccc23)cc1	8.49 µM (active)	49.7 µM (active)	13 µM (active)
Clc1ccc2nc(-c3ccc(Br)s3)cn2c1	7.91 µM (active)	11.2 µM (active)	12.3 µM (active)
O=C1N=C(NS(=O)(=O)Cc2ccccc2)S/C1=C1\C(=O)Nc2ccccc21	3.76 µM (active)	67.2 µM (active)	15.7 µM (active)
